Results published in patent US20250352498A1, “PHARMACEUTICAL FORMULATIONS CONTAINING PHENYLBUTYRATE AND METHODS THEREOF” (AARDVARK THERAPEUTICS INC., priority 2024, published 2025).

- solubility in hydrophilic solvent (hydrophilic solvent): highly soluble
- solubility in hydrophobic excipients (hydrophobic excipients): poorly soluble
- water solubility (water): freely water soluble
Substance: sodium phenylbutyrate
